Laboratory results: publication PMC3353318 (Bioorganic & Medicinal Chemistry, 2011)

Tests used:
A/M2 S31N mutant = A/M2 S31N mutant (Influenza A virus, UniProt P0DOF5, S31N); type: cell-based, influenza A/Udorn/72
A/M2 V27A mutant = A/M2 V27A mutant (Influenza A virus, UniProt P0DOF5, V27A); type: cell-based, influenza A/Udorn/72

In the case of “N-Benzyl-6,7,8,9,10,11-hexahydro-9-methyl-5,7:9,11-dimethano-5H-benzocyclononen-7-amine hydrochloride [Compound 6]”, the “inhibition of S31N A/M2 channel activity (in words)” value (A/M2 S31N mutant) is reported as “unable to inhibit” and the “inhibition of V27A A/M2 channel activity (in words)” value (A/M2 V27A mutant) is reported as “unable to inhibit”.

For “6,7,8,9,10,11-Hexahydro-9-methyl-5,7:9,11-dimethano-5H-benzocyclononen-7-amine hydrochloride [Compound 3]”, the “inhibition of S31N A/M2 channel activity (in words)” value (A/M2 S31N mutant) was “Neither 3 nor 11 were able to inhibit” and the “inhibition of V27A A/M2 channel activity (in words)” value (A/M2 V27A mutant) was “Neither 3 nor 11 were able to inhibit”.

In the case of “N,N-Dimethyl-6,7,8,9,10,11-hexahydro-9-methyl-5,7:9,11-dimethano-5H-benzocyclononen-7-amine hydrochloride [Compound 11]”, the “inhibition of S31N A/M2 channel activity (in words)” value (A/M2 S31N mutant) is reported as “Neither 3 nor 11 were able to inhibit” and the “inhibition of V27A A/M2 channel activity (in words)” value (A/M2 V27A mutant) is reported as “Neither 3 nor 11 were able to inhibit”.
